The Ki is the dissociation constant of the complex between target and ligand, obtained from inhibition or displacement. A high value points to weaker binding. For orientation: EC50 means the midpoint of the concentration-response curve. High values mean a less potent agent, low ones a more potent agent.

Data on 18 compounds can be found in ChEMBL document CHEMBL1145366, “A new class of histamine H3 receptor antagonists derived from ligand based design” (Bioorg Med Chem Lett, 2007).

The target of experiment [1] is T1, Histamine H3 receptor (Homo sapiens, UniProt Q9Y5N1). Description: Displacement of [3H](R)-alpha-methylhistamine from human histamine H3 receptor at 10 uM. On the technique in general: Loss of bound radioactivity is the signal in a displacement assay; it reports binding, not function.
Experiment [2] concerns the target Histamine H1 receptor (Homo sapiens) (UniProt P35367). Description: Displacement of [3H]pyrilamine from human histamine H1 receptor at 10 uM.
Experiment [3] addresses Histamine H2 receptor (Homo sapiens) (UniProt P25021). The experiment is described as follows: Displacement of [3H]tiotidine from human histamine H2 receptor at 10 uM.
The target of experiment [4] is T1, Histamine H3 receptor. Description: Binding affinity to human histamine H3 receptor.
Experiment [5] addresses T1, Histamine H3 receptor. The experiment is described as follows: Inverse agonist activity at human histamine H3 receptor by GTP gammaS assay. The class given is functional.
Experiment [6] deals with Histamine H3 receptor (Rattus norvegicus, UniProt Q9QYN8). Description: Binding affinity to rat histamine H3 receptor.
Histamine H3 receptor (Rattus norvegicus, UniProt Q9QYN8), sequence (Q9QYN8 whole entry): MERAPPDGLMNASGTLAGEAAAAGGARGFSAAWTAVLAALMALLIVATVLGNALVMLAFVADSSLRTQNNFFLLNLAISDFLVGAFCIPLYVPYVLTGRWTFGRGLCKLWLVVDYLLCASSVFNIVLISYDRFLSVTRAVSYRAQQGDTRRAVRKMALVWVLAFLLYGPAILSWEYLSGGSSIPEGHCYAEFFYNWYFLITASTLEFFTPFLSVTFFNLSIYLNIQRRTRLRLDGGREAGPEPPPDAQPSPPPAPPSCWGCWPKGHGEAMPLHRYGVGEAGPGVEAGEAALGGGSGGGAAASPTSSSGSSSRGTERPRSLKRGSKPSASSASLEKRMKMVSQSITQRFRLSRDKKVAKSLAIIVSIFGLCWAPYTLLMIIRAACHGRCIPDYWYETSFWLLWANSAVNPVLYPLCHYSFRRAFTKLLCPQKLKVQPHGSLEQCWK

Histamine H1 receptor (Homo sapiens), sequence (P35367 whole entry): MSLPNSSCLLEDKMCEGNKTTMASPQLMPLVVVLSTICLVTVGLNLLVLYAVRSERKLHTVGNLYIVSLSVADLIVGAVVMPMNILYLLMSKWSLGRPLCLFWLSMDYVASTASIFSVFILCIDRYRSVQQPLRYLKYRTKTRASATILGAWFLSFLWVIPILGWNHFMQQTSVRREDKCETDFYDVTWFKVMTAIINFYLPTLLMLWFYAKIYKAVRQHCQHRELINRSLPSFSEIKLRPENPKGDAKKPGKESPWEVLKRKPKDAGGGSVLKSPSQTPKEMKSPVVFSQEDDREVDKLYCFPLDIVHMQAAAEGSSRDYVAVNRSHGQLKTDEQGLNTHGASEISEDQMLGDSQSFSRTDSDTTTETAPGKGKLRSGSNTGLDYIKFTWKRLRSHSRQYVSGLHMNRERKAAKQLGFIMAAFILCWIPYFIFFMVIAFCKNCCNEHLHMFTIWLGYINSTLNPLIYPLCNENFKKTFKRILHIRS
T1 sequence (Q9Y5N1 whole entry): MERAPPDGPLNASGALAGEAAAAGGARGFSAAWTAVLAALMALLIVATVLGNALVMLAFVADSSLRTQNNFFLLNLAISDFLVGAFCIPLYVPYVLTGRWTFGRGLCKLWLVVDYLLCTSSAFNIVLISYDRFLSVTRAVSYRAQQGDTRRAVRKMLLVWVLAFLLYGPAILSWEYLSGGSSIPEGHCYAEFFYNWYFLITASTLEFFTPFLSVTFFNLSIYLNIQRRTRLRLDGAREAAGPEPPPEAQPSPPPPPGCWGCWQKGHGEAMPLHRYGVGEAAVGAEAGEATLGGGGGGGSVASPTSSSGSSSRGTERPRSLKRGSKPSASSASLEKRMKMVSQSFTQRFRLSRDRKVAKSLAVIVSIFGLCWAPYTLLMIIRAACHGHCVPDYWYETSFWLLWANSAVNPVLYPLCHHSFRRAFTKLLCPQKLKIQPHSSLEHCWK
Histamine H2 receptor (Homo sapiens), sequence (P25021 whole entry): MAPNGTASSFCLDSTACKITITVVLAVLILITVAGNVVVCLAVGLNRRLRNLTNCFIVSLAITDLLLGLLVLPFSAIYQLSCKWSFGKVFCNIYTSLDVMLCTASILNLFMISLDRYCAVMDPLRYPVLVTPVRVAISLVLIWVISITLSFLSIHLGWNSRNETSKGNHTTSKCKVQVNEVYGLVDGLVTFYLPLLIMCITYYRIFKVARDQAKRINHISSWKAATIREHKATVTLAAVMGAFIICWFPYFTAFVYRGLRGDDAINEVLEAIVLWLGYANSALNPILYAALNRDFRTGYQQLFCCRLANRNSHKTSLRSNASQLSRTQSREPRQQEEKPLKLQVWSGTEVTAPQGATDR

Take `CN(C)Cc1cc(O)ccc1Nc1ncnc2ccccc12`: the Activity in experiment [1] was 11.6%.
Still for that read-out and setting: the figure for `CCOC(=O)CCCOc1ccc(Nc2ncnc3ccccc23)c(CN(C)C)c1` is 28%.
For the compound `CN(C)CCCOc1ccc(Nc2ncnc3ccccc23)c(CN(C)C)c1`, the Activity was -15% in experiment [2] and -2% in experiment [3]. For the same compound, the inhibitory constant (Ki) in experiment [4] is 0.018 µM.
Consider `CN(C)Cc1cc(OCCCN2CCCCC2)ccc1Nc1ncnc2ccccc12`, for which the Activity in experiment [2] was -2.5%; in experiment [3], 2.4%. In addition, in experiment [5], a half-maximal response (EC50) required 0.0002 µM. Besides, the Ki in experiment [6] is 0.0098 µM; in experiment [4], 0.0003 µM.
Regarding `CN(C)C(=O)c1cc(OCCC2CCCN2C)ccc1OCc1ccccc1Cl` (stereo unspecified), in experiment [4], the Ki worked out at 1.81 µM.
For the compound `CN(C)CCCOc1ccc(Oc2ncnc3ccccc23)c(C(=O)N(C)C)c1`, the affinity in experiment [4] corresponds to a Ki of 1.02 µM.
For `CN(C)C(=O)c1cc(OC2CCCCO2)ccc1OCc1ccccc1Cl` (stereo unspecified), the Activity in experiment [1] was 17%.
Turning to `COc1ccccc1COc1ccc(OCCCN2CCCCC2)cc1C(=O)N(C)C`, the Ki in experiment [4] came to 0.012 µM.
`CC(C)N1CCC(Oc2ccc(OCc3ccccc3Cl)c(CN(C)C)c2)C1` (stereo unspecified): in experiment [4], the Ki turned out to be 0.088 µM.
Regarding `CN(C)C(=O)c1cc(OCc2ccc(F)cc2)ccc1OCc1ccccc1Cl`, the Activity in experiment [1] came out at 33%.
In turn, `CN(C)CCCOc1ccc(OCc2ccccc2Cl)c(CN(C)C)c1` gave a Ki in experiment [4] of 0.135 µM.
`CN(C)C(=O)c1cc(OCCCN2CCOCC2)ccc1OCc1ccccc1Cl` registered a Ki in experiment [4] of 1.1 µM.
For the compound `COc1ccccc1COc1ccc(OCCCN2CCOCC2)cc1C(=O)N(C)C`, in experiment [1], the Activity was determined as 73.4%. The affinity in experiment [4] corresponds to a Ki of 1.39 µM.
In experiment [4], `CN(C)Cc1cc(OCCCN2CCCCC2)ccc1OCc1ccccc1Cl` came in with an inhibition constant Ki of 0.0024 µM.
In the case of `CN(C)Cc1cc(OCCCCl)ccc1Nc1ncnc2ccccc12`, the Activity in experiment [1] amounted to 49%.
Consider `CN(C)Cc1cc(OCC2CCCN(C)C2)ccc1OCc1ccccc1Cl` (stereo unspecified), for which the Ki in experiment [4] was 0.15 µM.
Regarding `COC(=O)c1ccc(COc2ccc(Nc3ncnc4ccccc34)c(CN(C)C)c2)cc1`, the Activity in experiment [1] turned out to be 31%.
Consider `CN(C)C(=O)c1cc(OCCCN2CCCCC2)ccc1OCc1ccccc1Cl`, for which the Activity in experiment [2] was 8%. The same compound showed a Ki in experiment [4] of 0.047 µM.
